From publication PMC3826796 (European journal of cancer (Oxford, England : 1990), 2012)
Read-outs that look alike come from different tables or passages of the source. Each block holds one compound with its values, some of them ahead of it.

Key:
[1] = cited from earlier work
advanced malignancies = settings: cited from earlier work
Phospho-AKT (T308) = settings: CLL cells from a subset of patients, post-dose; cited from earlier work
[2] = Plasma pharmacokinetics of SF1126 and hydrolysis products SF1101 and SF1174; format: in vivo, human; settings: human, in vivo
[3] = background statement, ref not given; cited from earlier work

SMILES: COc1ccc(-c2ccc3ncc4c(c3c2)n(-c2ccc(N3CCNCC3)c(C(F)(F)F)c2)c(=O)n4C)cn1 [BGT226]
AE profile ([1]; phase I, advanced solid tumours): nausea, vomiting and diarrhoea

SMILES: Nc1cc(C(F)(F)F)c(-c2cc(N3CCOCC3)nc(N3CCOCC3)n2)cn1 [BKM120]
AEs ([1]; phase I): grade 3 rash, abdominal pain and mood alterations
Events observed at DLT ([1]; phase I): Two grade 4 hyperglycaemic events
Patients on study for P8 months (advanced malignancies; phase I): 7
PR (number of patients) (advanced malignancies; phase I, triple negative breast cancer (KRAS mutated) patient): 1

SMILES: CC[C@H](Nc1ncnc2[nH]cnc12)c1nc2cccc(F)c2c(=O)n1-c1ccccc1 [CAL-101]
Reduction of Phospho-AKT (T308) (Phospho-AKT (T308)): > 90%
Patients with durable responses of >6 months (advanced malignancies; refractory non-Hodgkin's lymphoma and chronic lymphocytic leukaemia): 5

SMILES: CS(=O)(=O)N1CCN(Cc2cc3nc(-c4cccc5[nH]ncc45)nc(N4CCOCC4)c3s2)CC1 [GDC-0941]
Patients with anti-tumour activity (advanced malignancies; phase I, relapsed/refractory solid tumours): 3 of 19

SMILES: C=CCN(/C=C1/C(=O)O[C@H](COC)[C@@]2(C)C1=C(O)C(=O)C1=C2[C@H](OC(C)=O)C[C@]2(C)C(=O)CC[C@@H]12)CC=C [PX-866]
Grade 3 adverse event [1]: 1 reversible grade 3 transminitis

Concentrations reached (Cmax versus dose) [2]: 20 to 30 µM
half-life ([2]; iv): 1 to 2.4 h
SMILES: O=c1cc(N2CCOCC2)oc2c(-c3ccccc3)cccc12 [SF1101, reference compound]
half-life [3]: short half-life

SMILES: COc1ccc(Cl)c(Nc2nc3ccccc3nc2NS(=O)(=O)c2cccc(NC(=O)C(C)(C)N)c2)c1 [XL147]
Major DLT [1]: skin rash
Partial response (advanced malignancies): PR in a NSCLC patient with a confirmed PI3K3CA mutation

SMILES: CCn1c(=O)c(-c2cc[nH]n2)cc2c(C)nc(N)nc21 [XL765]
Patients on study for ≥16 weeks (advanced malignancies; Phase I, oral): 11
Patients on study for ≥24 weeks (advanced malignancies; Phase I, oral): 7
